# In PMC3003779 (Chemistry & biology, 2010):
# Read-outs that look alike come from different tables or passages of the source.
# Columns and labels:
# [1] = molecular target: T1, FAAH (Mus musculus, UniProt O08914); type: cell-based; conditions: 100 nM
# T1 sequence (O08914 1-579): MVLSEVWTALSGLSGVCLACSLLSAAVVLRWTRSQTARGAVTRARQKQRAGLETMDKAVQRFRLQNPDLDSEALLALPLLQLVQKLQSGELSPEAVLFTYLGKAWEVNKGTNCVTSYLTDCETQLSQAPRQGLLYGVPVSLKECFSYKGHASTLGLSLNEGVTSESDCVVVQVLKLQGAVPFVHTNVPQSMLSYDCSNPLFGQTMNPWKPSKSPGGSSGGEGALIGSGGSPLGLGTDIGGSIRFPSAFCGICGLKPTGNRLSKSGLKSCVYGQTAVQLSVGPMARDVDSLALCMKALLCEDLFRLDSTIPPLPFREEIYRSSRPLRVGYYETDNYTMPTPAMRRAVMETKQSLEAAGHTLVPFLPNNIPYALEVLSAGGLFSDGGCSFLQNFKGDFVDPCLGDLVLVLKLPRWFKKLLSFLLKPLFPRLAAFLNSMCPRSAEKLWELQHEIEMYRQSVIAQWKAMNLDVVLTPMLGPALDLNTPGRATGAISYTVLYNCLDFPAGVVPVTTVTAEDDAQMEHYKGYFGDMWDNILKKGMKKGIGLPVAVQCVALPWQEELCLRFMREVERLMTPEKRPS
# [2] = molecular target: T2, human recombinant FAAH (Homo sapiens, UniProt O00519); experiment: biochemical
# T2 sequence (O00519 1-579): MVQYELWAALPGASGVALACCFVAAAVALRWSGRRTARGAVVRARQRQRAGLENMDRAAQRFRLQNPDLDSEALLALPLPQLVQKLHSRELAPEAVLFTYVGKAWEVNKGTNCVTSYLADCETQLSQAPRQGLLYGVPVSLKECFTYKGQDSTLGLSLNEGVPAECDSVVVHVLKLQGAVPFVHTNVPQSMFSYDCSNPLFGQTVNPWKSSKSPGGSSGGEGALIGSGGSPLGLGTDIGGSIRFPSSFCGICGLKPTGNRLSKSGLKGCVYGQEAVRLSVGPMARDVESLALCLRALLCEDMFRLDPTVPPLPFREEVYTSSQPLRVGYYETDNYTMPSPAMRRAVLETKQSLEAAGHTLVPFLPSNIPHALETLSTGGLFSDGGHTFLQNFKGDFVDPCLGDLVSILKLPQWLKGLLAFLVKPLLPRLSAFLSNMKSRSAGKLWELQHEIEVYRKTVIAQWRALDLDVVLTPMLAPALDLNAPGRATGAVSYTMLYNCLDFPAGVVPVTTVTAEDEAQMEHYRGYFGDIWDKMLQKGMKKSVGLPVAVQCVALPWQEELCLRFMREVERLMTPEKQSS
# [3] = system: [3H]anandamide uptake by cultured CCF-STTG1 astrocytoma cells; experiment: anandamide transport assay; conditions: concentrations up to 20 μmol/L
# [4] = system: SHR and WKY rats; experiment: mean arterial pressure and heart rate in anesthetized rats; type: in vivo, rat; conditions: 1 mg/kg i.v.
# [5] = system: anandamide levels in hepatocytes; experiment: anandamide levels in hepatocytes; type: cell-based, mouse; conditions: 100 nM, dense suspension 40 mg/mL
# [6] = system: brain anandamide and 2-AG levels; experiment: brain endocannabinoid levels by LC/MS; conditions: SHR and WKY, bolus i.p. doses, 1 h
# [7] = system: Mouse hepatocytes; experiment: drug levels in hepatocyte suspensions by LC/MS/MS
# [8] = system: mice with diet-induced obesity; experiment: intraperitoneal glucose tolerance test in mice on high-fat diet; type: in vivo, mouse; conditions: male DIO mice
# [9] = system: SHR; experiment: cardiovascular effects under ganglionic blockade; conditions: 1 mg/kg, hexamethonium + vasopressin + isoproterenol
# [10] = molecular target: T3, FAAH (Rattus norvegicus, UniProt P97612); type: in vivo; conditions: for ID50, inhibition of brain FAAH activity: i.p., 1 h; for reduction of hepatic FAAH activity: 1 mg/kg i.p.
# T3 sequence (P97612 1-579): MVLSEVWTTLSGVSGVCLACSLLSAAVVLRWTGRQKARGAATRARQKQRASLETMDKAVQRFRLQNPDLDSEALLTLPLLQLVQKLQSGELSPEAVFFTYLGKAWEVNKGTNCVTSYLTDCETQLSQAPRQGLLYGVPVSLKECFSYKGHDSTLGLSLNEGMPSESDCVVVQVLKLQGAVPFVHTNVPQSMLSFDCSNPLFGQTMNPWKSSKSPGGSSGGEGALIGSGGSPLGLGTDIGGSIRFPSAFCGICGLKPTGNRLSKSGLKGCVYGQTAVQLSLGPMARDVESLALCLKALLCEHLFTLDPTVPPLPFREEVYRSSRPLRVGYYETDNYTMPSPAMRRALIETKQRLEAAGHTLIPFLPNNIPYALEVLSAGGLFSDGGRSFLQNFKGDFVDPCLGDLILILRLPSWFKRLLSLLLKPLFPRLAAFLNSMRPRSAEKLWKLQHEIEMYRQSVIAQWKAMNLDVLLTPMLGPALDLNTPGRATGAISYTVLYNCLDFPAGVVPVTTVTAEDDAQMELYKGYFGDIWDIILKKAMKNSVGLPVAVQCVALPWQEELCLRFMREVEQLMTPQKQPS
# [11] = molecular target: T1, FAAH; experiment: FAAH activity in brain and liver homogenates, drug added in vitro; type: biochemical; conditions: 100 nM added in vitro, brain and liver homogenates
# [12] = molecular target: T1, FAAH; experiment: in vivo; type: in vivo
# [13] = system: SHR and WKY rats; experiment: plasma norepinephrine; type: in vivo, rat; conditions: 1 mg/kg i.v.
# [14] = system: SHR and WKY rats; experiment: non-fasting blood glucose in rats; conditions: 1 mg/kg i.p.
compound,measurement,setting,value
"O=S(=O)(F)CCCCCc1ccc(O)cc1 [AM3506, 5-(4-hydroxyphenyl)pentanesulfonyl fluoride]","FAAH activity in cells, dense hepatocyte suspension",[1]; 40 mg/mL,no measurable change
same,"FAAH activity in cell pellet, dilute hepatocyte suspension","[1]; 30 min, 1 mg wet cell weight/mL",nearly completely blocked
same,IC50,[2],48 nM
same,effect on anandamide transport,[3],did not affect
same,effect on HR,[4]; SHR,marked bradycardia
same,effect on MAP,[4]; SHR,profound and sustained decrease
same,effect on MAP and HR,[4]; WKY,only slight changes
same,anandamide levels in hepatocytes,[5],remained unchanged
same,brain 2-AG levels,[6],remained unaffected
same,brain anandamide levels,[6],parallel increases
same,recovery of drug from cell-free medium,"[7]; 0 to 30 min, no hepatocytes",remained constant
same,"drug level in cell pellets, dense hepatocyte suspension","[7]; 100 nM, 40 mg/mL",below threshold
same,"drug level in medium, dense hepatocyte suspension","[7]; 100 nM, 40 mg/mL",rapidly depleted from the medium
same,free drug (parent ion) still present in cell-free supernatant,"[7]; dilute hepatocyte suspension 1 mg/mL, 100 nM, 10 min, % of drug added at 0 min",50–55%
same,effect on glucose tolerance,[8]; 1 mg/kg,did not affect glucose tolerance
same,ipGTT area under the curve (AUC),"[8]; 1 mg/kg i.p. 60 min before glucose, vehicle 352±28",411 ± 35 mg·h/dL
same,reduction of the bradycardia elicited by AM3506 under ganglionic blockade,[9],74.0±7.7%
same,reduction of the hypotension elicited by AM3506 under ganglionic blockade,[9],89.6±3.6%
same,"ID50, inhibition of brain FAAH activity",[10]; SHR brain,~0.1 mg/kg
same,reduction of hepatic FAAH activity,[10]; SHR liver,11.1±0.4%
same,"ID50, inhibition of brain FAAH activity",[10]; WKY brain,~0.1 mg/kg
same,reduction of hepatic FAAH activity,[10]; WKY liver,6.7±0.2%
same,FAAH activity in tissue homogenates,[11],equally effective in blocking FAAH activity in brain and liver
same,"ID50, inhibition of brain FAAH activity","[12]; mouse brain, ex vivo",0.10 mg/kg
same,FAAH inhibitory activity in liver,"[12]; mouse liver, doses up to 1 mg/kg",devoid of substantial FAAH inhibitory activity
same,suppression of FAAH activity in brain,"[12]; oral, 1 mg/kg, brain",90±0.4%
same,suppression of hepatic FAAH activity,"[12]; oral, 1 mg/kg, liver",13±2.6%
same,plasma norepinephrine after treatment,"[13]; WKY, baseline 198±11, remained unaffected",167 ± 35 pg/mL
same,reduction of plasma norepinephrine,"[13]; anesthetized SHR, 30 min",82±5%
same,plasma norepinephrine after treatment,"[13]; anesthetized SHR, 30 min, […]",53 ± 12 pg/mL
same,non-fasting blood glucose after treatment,"[14]; SHR, from 97.8±5.6",96.8 ± 2.9 mg/dL
same,non-fasting blood glucose after treatment,"[14]; WKY, from 114.5±5.3",108.2 ± 4.5 mg/dL
